Columns and labels:
[1] = test system: Erysiphe graminis f. sp. tritici; test: Test A: preventive spray on wheat seedlings, wheat powdery mildew disease control; type: in vivo, Erysiphe graminis f. sp. tritici (wheat seedlings); settings: average of three replicates
Description: The formulation containing a compound of component (1) is dissolved in water to form a stock solution. For testing component (1) individually the stock solution is diluted to the final desired concentration to form a test solution. For example, the compositions of component (1) (e.g., Compound 1 of Index Table A), either alone or in combination, are sprayed at 0.08 or 0.4 ppm to the point of run-off on the test plants, equivalent to a rate of 0.2 or 1 g/ha, respectively.
The commercially available formulation of component (2) (e.g. the Karathane® 19.5% wettable powder formulation of dinocap) is suspended in water to form a stock suspension. For testing component (2) individually the stock suspension is diluted to the final desired concentration to form a test suspension. For example, dinocap, either alone or in combination, is sprayed at 10, 40 or 200 ppm to the point of run-off on the test plants, equivalent to a rate of 25, 100 or 500 g/ha, respectively.
For testing combinations, the stock suspensions of the individual active ingredients prepared as above are then combined in the appropriate ratio, and diluted to the final desired concentration to form a test suspension.
The resulting test suspensions are then used in the following tests. Test suspensions are sprayed to the point of run-off on the test plants at the rates of active ingredient described below. The tests were replicated three times and the results reported as the average of the three replicates.
The test suspension was sprayed to the point of run-off on wheat seedlings. The following day the seedlings were inoculated with a spore dust of Erysiphe graminis f. sp. tritici, (the causal agent of wheat powdery mildew) and incubated in a growth chamber at 20° C. for 8 days, after which disease ratings were made.
Results for Test A are given in Table A. In the table, a rating of 100 indicates 100% disease control and a rating of 0 indicates no disease control (relative to the controls). Columns labeled Observed Disease Control indicates the average of three replications. Columns labeled Expected Disease Control indicate the expected value for each treatment mixture using the Colby equation.

Row | Compound | melting point | Observed Disease Control ([1]; application rate 0.08 ppm, inoculated day after spray, rated after 8 days at 20° C.) | Observed Disease Control ([1]; application rate 0.4 ppm, rated after 8 days) | Observed Disease Control ([1]; application rate 10 ppm, rated after 8 days) | Observed Disease Control ([1]; application rate 40 ppm, rated after 8 days) | Observed Disease Control ([1]; application rate 200 ppm, rated after 8 days)
1 | CCCOc1nc2ccc(I)cc2c(=O)n1CCC [Compound 1, 6-iodo-3-propyl-2-propyloxy-4(3H)-quinazolinone] | 48 to 49 °C | 80% | 99% | – | – | –
2 | 2,6-dinitro-4-octylphenyl crotonates and 2,4-dinitro-6-octylphenyl crotonates [Dinocap] | – | – | – | 45% | 76% | 98%
